Results as given in publication PMC3752380 (Nature chemical biology, 2013).

Tests used:
[1] = biological target: T1, MeaB (Methylorubrum extorquens, UniProt C5AP93); assay: isothermal titration calorimetry; type: binding
T1 sequence (C5AP93 1-329): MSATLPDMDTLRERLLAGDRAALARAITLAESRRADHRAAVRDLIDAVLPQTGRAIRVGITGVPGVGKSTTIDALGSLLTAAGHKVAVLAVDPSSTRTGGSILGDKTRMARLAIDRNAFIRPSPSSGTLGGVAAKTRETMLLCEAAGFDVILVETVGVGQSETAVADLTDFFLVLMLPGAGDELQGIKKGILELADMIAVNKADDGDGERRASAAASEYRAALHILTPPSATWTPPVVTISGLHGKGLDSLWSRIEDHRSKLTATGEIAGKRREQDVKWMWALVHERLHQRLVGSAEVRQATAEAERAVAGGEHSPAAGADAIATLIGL

[2] = biological target: the molecule itself; assay: crystal structure

Row | Molecule | Kd [1] | binding result [2]
1 | Nc1nc2c(ncn2[C@@H]2O[C@H](COP(=O)(O)OP(=O)(O)O)[C@@H](O)[C@H]2O)c(=O)[nH]1 [GDP] | 1400 ± 100 nM | 
2 | Nc1nc2c(ncn2[C@@H]2O[C@H](COP(=O)(O)OP(=O)(O)NP(=O)(O)O)[C@@H](O)[C@H]2O)c(=O)[nH]1 [GMPPNP] | 900 ± 200 nM | 
3 | MeaB (Methylobacterium extorquens AM1), wild type (natural protein) MSATLPDMDTLRERLLAGDRAALARAITLAESRRADHRAAVRDLIDAVLPQTGRAIRVGITGVPGVGKSTTIDALGSLLTAAGHKVAVLAVDPSSTRTGGSILGDKTRMARLAIDRNAFIRPSPSSGTLGGVAAKTRETMLLCEAAGFDVILVETVGVGQSETAVADLTDFFLVLMLPGAGDELQGIKKGILELADMIAVNKADDGDGERRASAAASEYRAALHILTPPSATWTPPVVTISGLHGKGLDSLWSRIEDHRSKLTATGEIAGKRREQDVKWMWALVHERLHQRLVGSAEVRQATAEAERAVAGGEHSPAAGADAIATLIGL |  | binds
